{"source": "patent US6936572B2", "about": "“Agrochemical formulation aid composition and uses thereof” (Adjuvants Plus Inc., priority 2000, dated 2005)", "key": {"[1]": {"tested_on": "various annual and perennial weeds", "settings": "21 DAT; spray volume of 200 l/ha; different rates; two fields", "experimental": "(§1) The results shown in Table 3 were obtained by applying the mixture of dicamba technical acid (87%) and the formulation aid to two fields infected with various annual and perennial weeds (indicated in Table 3). The experiments were conducted between the period of September 1998 to August 2000."}, "Lambsquarters [2]": {"tested_on": "Lambsquarters", "settings": "21 DAT, spray volume 200 l/ha", "experimental": "as §1"}, "Pig Weed [3]": {"tested_on": "Pig Weed", "settings": "21 DAT, spray volume 200 l/ha", "experimental": "as §1"}, "Catnip": {"tested_on": "Catnip", "assay": "Field control of broad-spectrum weeds with glyphosate technical acid + formulation aid (Example 2)", "format": "in vivo", "settings": "21 DAT", "experimental": "(§2) Prior to any preparation all spray-mixing and application equipment were cleaned thoroughly by observing cleaning directions provided on the agrochemical labeling and accompanying materials provided by the maker. Half of the required water was placed in a spray tank. A required amount of the formulation aid was added in the spray tank for the required rate of glyphosate application as indicated in Table 1. […] Mixing was continued and remainder of the water was added to the spray tank. Mixing was: continued for another 5-10 minutes. The ready to use herbicide and formulation aid mixture was applied by spraying at the required rate.\n(§3) The formulation aid tested in this example contained about 21.5% by weight aromatic hydrocarbon distillate, about 3.1% by weight 2N-octanol, about 5.7% by weight oleyl-cetyl alcohol, about 3.1% by weight polyoxyethylene (8) nonylphenolethin, about 33.3% by weight polyoxyalkylated fatty alcohol, and about 33.3% by weight ethoxylated tallow amine blend."}, "Dandelions": {"tested_on": "Dandelions", "assay": "Field control of broad-spectrum weeds with glyphosate technical acid + formulation aid (Example 2)", "format": "in vivo", "settings": "21 DAT", "experimental": "as §2, §3"}, "Lambsquarters [4]": {"tested_on": "Lambsquarters", "assay": "Field control of broad-spectrum weeds with glyphosate technical acid + formulation aid (Example 2)", "format": "in vivo", "settings": "21 DAT", "experimental": "as §2, §3"}, "Sow Thistle": {"tested_on": "Sow Thistle", "assay": "Field control of broad-spectrum weeds with glyphosate technical acid + formulation aid (Example 2)", "format": "in vivo", "settings": "21 DAT", "experimental": "as §2, §3"}, "Canada Thistle": {"tested_on": "Canada Thistle", "assay": "Field control of broad-spectrum weeds with glyphosate technical acid + formulation aid (Example 2)", "format": "in vivo", "settings": "21 DAT", "experimental": "as §2, §3"}, "Pig Weed [5]": {"tested_on": "Pig Weed", "assay": "Field control of broad-spectrum weeds with glyphosate technical acid + formulation aid (Example 2)", "format": "in vivo", "settings": "21 DAT", "experimental": "as §2, §3"}, "Quackgrass": {"tested_on": "Quackgrass", "assay": "Field control of broad-spectrum weeds with glyphosate technical acid + formulation aid (Example 2)", "format": "in vivo", "settings": "21 DAT", "experimental": "as §2, §3"}, "[6]": {"tested_on": "various annual and perennial weeds", "assay": "Field weed control overall, glyphosate technical acid (Example 2)", "format": "in vivo", "settings": "21 DAT; different rates; 10 fields", "experimental": "as §2, §3"}, "Annual grasses": {"tested_on": "Annual grasses", "assay": "Field control of broad-spectrum weeds with glyphosate technical acid + formulation aid (Example 2)", "format": "in vivo, foxtails, annual bluegrass, crabgrass, witchgrass", "settings": "21 DAT", "experimental": "as §2, §3"}, "[7]": {"settings": "Dicamba 0.140 Kg/ha + formulation aid 1.0 L/ha or + water"}, "[8]": {"settings": "Dicamba 0.280 Kg/ha + formulation aid 1.0 L/ha or + water"}, "[9]": {"settings": "glyphosate technical acid (95%) 0.24 Kg or l/ha + formulation aid 0.5 l/ha or + water"}, "[10]": {"settings": "glyphosate technical acid (95%) 0.53 Kg or l/ha + formulation aid 0.5 l/ha or + water"}, "[11]": {"settings": "glyphosate technical acid (95%) 0.94 Kg or l/ha + formulation aid 0.9 l/ha or + water"}}, "note": "Like-named read-outs stand apart in the source and are kept apart here.", "data": [{"smiles": "COc1c(Cl)ccc(Cl)c1C(=O)O", "note": "[Dicamba + water, 3,6-dichloro-2-methoxybenozic acid]", "values": [{"measurement": "weed control (in words)", "setting": "[1]", "value": "No weed control"}, {"measurement": "Control of Lambsquarters", "setting": "Lambsquarters [2]; [7]", "value": 0, "unit": "%"}, {"measurement": "Control of Lambsquarters", "setting": "Lambsquarters [2]; [8]", "value": 0, "unit": "%"}, {"measurement": "Control of Pig Weed", "setting": "Pig Weed [3]; [7]", "value": 0, "unit": "%"}, {"measurement": "Control of Pig Weed", "setting": "Pig Weed [3]; [8]", "value": 0, "unit": "%"}]}, {"smiles": "O=C(O)CNCP(=O)(O)O", "note": "[Glyphosate + water, N-phosphonomethylglycine]", "values": [{"measurement": "Control of Catnip", "setting": "Catnip; [9]", "value": 0, "unit": "%"}, {"measurement": "Control of Catnip", "setting": "Catnip; [10]", "value": 0, "unit": "%"}, {"measurement": "Control of Catnip", "setting": "Catnip; [11]", "value": 0, "unit": "%"}, {"measurement": "Control of Dandelions", "setting": "Dandelions; [9]", "value": 0, "unit": "%"}, {"measurement": "Control of Dandelions", "setting": "Dandelions; [10]", "value": 0, "unit": "%"}, {"measurement": "Control of Dandelions", "setting": "Dandelions; [11]", "value": 0, "unit": "%"}, {"measurement": "Control of Lambsquarters", "setting": "Lambsquarters [4]; [9]", "value": 0, "unit": "%"}, {"measurement": "Control of Lambsquarters", "setting": "Lambsquarters [4]; [10]", "value": 0, "unit": "%"}, {"measurement": "Control of Lambsquarters", "setting": "Lambsquarters [4]; [11]", "value": 0, "unit": "%"}, {"measurement": "Control of Sow Thistle", "setting": "Sow Thistle; [9]", "value": 0, "unit": "%"}, {"measurement": "Control of Sow Thistle", "setting": "Sow Thistle; [10]", "value": 0, "unit": "%"}, {"measurement": "Control of Sow Thistle", "setting": "Sow Thistle; [11]", "value": 0, "unit": "%"}, {"measurement": "Control of Canada Thistle", "setting": "Canada Thistle; [9]", "value": 0, "unit": "%"}, {"measurement": "Control of Canada Thistle", "setting": "Canada Thistle; [10]", "value": 0, "unit": "%"}, {"measurement": "Control of Canada Thistle", "setting": "Canada Thistle; [11]", "value": 0, "unit": "%"}, {"measurement": "Control of Pig Weed", "setting": "Pig Weed [5]; [9]", "value": 0, "unit": "%"}, {"measurement": "Control of Pig Weed", "setting": "Pig Weed [5]; [10]", "value": 0, "unit": "%"}, {"measurement": "Control of Pig Weed", "setting": "Pig Weed [5]; [11]", "value": 0, "unit": "%"}, {"measurement": "Control of Quackgrass", "setting": "Quackgrass; [9]", "value": 0, "unit": "%"}, {"measurement": "Control of Quackgrass", "setting": "Quackgrass; [10]", "value": 0, "unit": "%"}, {"measurement": "Control of Quackgrass", "setting": "Quackgrass; [11]", "value": 0, "unit": "%"}, {"measurement": "weed control (in words)", "setting": "[6]", "value": "No weed control"}, {"measurement": "Control of Annual grasses", "setting": "Annual grasses; [9]", "value": 0, "unit": "%"}, {"measurement": "Control of Annual grasses", "setting": "Annual grasses; [10]", "value": 0, "unit": "%"}, {"measurement": "Control of Annual grasses", "setting": "Annual grasses; [11]", "value": 0, "unit": "%"}]}]}
